The target of series [1] is human G2A (Homo sapiens, UniProt Q9UNW8). To be noted: compared with T-10418; 15 min after addition.
Target sequence in this assay (P32121 whole entry partner, one chain of several): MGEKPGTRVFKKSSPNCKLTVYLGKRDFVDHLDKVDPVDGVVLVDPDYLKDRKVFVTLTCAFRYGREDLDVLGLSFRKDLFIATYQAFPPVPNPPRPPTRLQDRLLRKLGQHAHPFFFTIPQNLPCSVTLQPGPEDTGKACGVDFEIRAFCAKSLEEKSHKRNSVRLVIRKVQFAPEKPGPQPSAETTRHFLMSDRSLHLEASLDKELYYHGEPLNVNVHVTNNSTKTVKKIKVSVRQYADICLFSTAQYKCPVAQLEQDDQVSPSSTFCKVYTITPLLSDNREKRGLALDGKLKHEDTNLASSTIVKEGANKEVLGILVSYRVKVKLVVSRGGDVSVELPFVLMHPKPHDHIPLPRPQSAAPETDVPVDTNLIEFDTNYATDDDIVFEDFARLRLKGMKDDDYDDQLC
Series [2] concerns Molm-13 cells. Nature of the series: IP-One assay in AML cells. It counts as cell-based. The note with it: 90 minutes stimulation.
For series [3], the system named is ML-2 cells. Nature of the series: IP-One assay in AML cells. To be noted: 90 minutes stimulation. It counts as cell-based.
For series [4], the system named is CHO-K1 cells overexpressing only GNA11 but not G2A. To be noted: control cells without G2A; ONC compounds at ≥ 30 μM.
Series [5] deals with capsaicin-induced TRPV1 responses in mouse primary sensory neurons. Nature of the series: Calcium-imaging-based TRPV1 sensitization assay. It counts as cell-based.
Series [6] concerns the target GPR1 (Homo sapiens, UniProt P46091). The series is classed as cell-based. To be noted: 60 μM, no endogenous ligand applied.
The target of series [7] is T1, human G2A (Homo sapiens, UniProt Q9UNW8).
T1 sequence (Q9UNW8 1-380): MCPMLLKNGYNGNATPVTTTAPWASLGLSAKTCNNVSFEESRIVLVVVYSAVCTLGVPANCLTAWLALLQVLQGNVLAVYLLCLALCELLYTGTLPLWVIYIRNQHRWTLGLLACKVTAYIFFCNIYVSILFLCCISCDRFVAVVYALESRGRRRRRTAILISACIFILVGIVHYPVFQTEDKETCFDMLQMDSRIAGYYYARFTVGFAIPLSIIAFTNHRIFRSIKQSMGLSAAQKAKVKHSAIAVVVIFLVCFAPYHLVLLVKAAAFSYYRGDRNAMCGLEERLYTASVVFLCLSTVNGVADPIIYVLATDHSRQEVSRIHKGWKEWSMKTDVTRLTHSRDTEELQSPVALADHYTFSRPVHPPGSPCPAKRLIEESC
To be noted: ratio of EC50 values.

Series [8] in a line: Aqueous solubility. To be noted: PBS with 1% DMSO, pH 7.4, aqueous solubility, PBS buffer.
A short description of series [9]: Pharmacokinetics in male C57Bl/6N mice.
The nature of series [10]: Metabolic stability in rat liver microsomes. To be noted: Sprague–Dawley rat liver microsomes.
For series [11], the system named is Molm-13. Nature of the series: Cell viability. The series is classed as cell-based. The note with it: 30 μM, 72 h.
Series [12] relates to ML-2. Nature of the series: Cell viability. It counts as cell-based. To be noted: 30 μM, 72 h.
The subject of series [13] is Molm-13. The series can be described thus: Apoptosis assay AnnexinV/7-AAD. It counts as cell-based. To be noted: 30 μM, 24 h.
The test system of series [14] is ML-2. The series can be described thus: Apoptosis assay AnnexinV/7-AAD. It counts as cell-based. To be noted: 30 μM, 24 h.
The subject of series [15] is G2A. The note with it: weak antagonist of G2A; cited from earlier work.

“Also recorded” adds a separate entry of the source. Marks after values point to notes of the source that are not given here. Bounds are passed on as bounds.

Chain of GPR1 (P46091 whole entry): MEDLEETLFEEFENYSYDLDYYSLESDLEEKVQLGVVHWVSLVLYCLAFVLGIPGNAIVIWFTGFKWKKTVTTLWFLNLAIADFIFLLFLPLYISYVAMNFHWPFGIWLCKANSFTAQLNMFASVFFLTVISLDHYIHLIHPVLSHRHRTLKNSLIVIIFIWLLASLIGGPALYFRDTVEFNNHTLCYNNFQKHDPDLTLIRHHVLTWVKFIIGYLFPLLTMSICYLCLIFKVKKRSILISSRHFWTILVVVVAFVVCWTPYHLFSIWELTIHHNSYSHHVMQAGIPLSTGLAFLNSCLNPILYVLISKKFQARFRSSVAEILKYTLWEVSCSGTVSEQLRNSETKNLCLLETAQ
Chain of GPR1 (P32121 whole entry partner): as the sequence (P32121 whole entry partner, one chain of several) above

For the compound `CCCCC/C=C\C=C\[C@H](O)CCCCCCCC(=O)O` [9(R)-HODE], the βarr2 recruitment response result in series [1] was “did not result in any observable NanoLuc complementation”.
As to `CCCCC/C=C\C=C\C(O)CCCCCCCC(=O)O` (centres unmarked) [9-HODE], the “activation of the Gq pathway (IP-1)” value in series [2] and in series [3] was “could not detect any activation of the Gq pathway” throughout. For the same compound, the “increase in IP-1 not mediated by the receptor” value in series [4] is “not been observed”. The βarr2 recruitment response result in series [1] is reported as “unable to stimulate the same degree of β-arrestin recruitment”.
Turning to `O=C(NC(Cc1ccccc1)C(=O)O)c1cccc(OCc2cccnc2)c1` (centres unmarked) [Compound 1], in series [5] (1 μM compound, 2 min, capsaicin 100 nM 30 s), the “sensitization of capsaicin-induced TRPV1 responses” value is given as “potently sensitize for capsaicin-induced TRPV1 responses; also recorded: comparable to that observed with 200 nM (±)9-HODE”.
In the case of `O=C(N[C@H](Cc1ccccc1)C(=O)O)c1cccc(OCc2cccnc2)c1` [Compound 3, (R)-3-Phenyl-2-(3-(pyridin-3-ylmethoxy)benzamido)propanoic Acid], the “partial agonism, share of maximal βarr2 recruitment observed with C9” value in series [6] is recorded as “approximately 50%”. Further, the “activation of the Gq pathway (IP-1)” value in series [2] and in series [3] was “could not detect any activation of the Gq pathway” in each case. Also, the “times more active than the (S) distomer 2” value in series [7] is on record as “more than 30 times”. The same compound showed a solubility in series [8] of over 3000 µM. For the same compound, in series [9] (10 mg/kg sc), the CL came out at 140.8 mL/min/kg. Further, in series [9] (iv or sc in PBS), the “behavior and clinical signs after dosing” value is on record as “no clinical signs observed”. The “rat liver microsomes (remaining after 60 min)” value in series [10] is on record as 98% ^c.
Turning to `COc1ccc(-c2cc(C(=O)N[C@@H](Cc3ccccc3)C(=O)NC3CCCCC3)ccc2O)cc1` [Compound 56, (S)-N-(1-(Cyclohexylamino)-1-oxo-3-phenylpropan-2-yl)-6-hydroxy-4′-methoxy-[1,1′-biphenyl]-3-carboxamide], in [5] (cotreatment with 10 μM antagonist), the “effect on TRPV1 sensitization by T-10418 (100 nM) and 9-HODE (400 nM)” value is “completely abolished”.
As to `Cc1ccccc1CN1C(=O)C2=C(CCN(Cc3ccccc3)C2)N2CCN=C12` [ONC201], the viable cells entry in [11] and in series [12] was “strong reduction in viable” in each case. The induction of apoptosis result in series [13] and in series [14] was “induction of apoptosis could be confirmed” in each case.
For `O=C1C2=C(CCN(Cc3ccccc3)C2)N2CCN=C2N1Cc1ccc(C(F)(F)F)cc1` [ONC212], the “activation of the Gq pathway (IP-1)” value in [2] and in series [3] was “could not detect any activation of the Gq pathway” each time. In series [4], the “increase in IP-1 not mediated by the receptor” value is listed as “substantial increase in IP-1”.
Take lysophosphatidylcholine [LPC]: the half-inhibitory concentration (IC50) in series [15] was over 10 µM.
